Results as given in ChEMBL document CHEMBL1156268, “Michael acceptor based antiplasmodial and antitrypanosomal cysteine protease inhibitors with unusual amino acids” (J Med Chem, 2010).
Calls of active or inactive are those of the source. No cut-off for these calls is given here.

Columns and labels:
[1] = Selectivity index, ratio of IC50 for mouse J774.1 cells to IC50 for Trypanosoma brucei brucei; assay type: toxicity; conditions: J774.1 cells versus Trypanosoma brucei brucei, read-out: Ratio IC50
[2] = test system: Trypanosoma brucei brucei; assay: Antitrypanosomal activity against Trypanosoma brucei brucei; assay type: functional, organism-based
Plasmodium falciparum [3] = assay: Antiplasmodial activity against Plasmodium falciparum FCBR by flow cytometry; assay type: functional, organism-based; conditions: FCBR/Columbia
[4] = Inhibition of Plasmodium falciparum recombinant falcipain-2 using Cbz-Leu-Arg-AMC as substrate by standard fluorescence assay
[5] = Cytotoxicity against mouse J774.1 cells; assay type: cell-based
Rhodesain [6] = target: T1, Rhodesain (Trypanosoma brucei rhodesiense, UniProt Q95PM0); assay: (§1) Inhibition of Trypanosoma brucei rhodesiense recombinant rhodesain by standard fluorescence assay
[7] = target: Rhodesain (Trypanosoma brucei rhodesiense) (UniProt Q95PM0); assay: as §1; conditions: TDE = time-dependent effect
[8] = Inhibition of Plasmodium falciparum recombinant falcipain-2 using Cbz-Phe-Arg-AMC as substrate by standard fluorescence assay
Plasmodium falciparum [9] = assay: Antiplasmodial activity against Plasmodium falciparum W2 by flow cytometry; assay type: functional, organism-based
[10] = Inhibition of Plasmodium falciparum recombinant falcipain-3 by standard fluorescence assay
Rhodesain [11] = target: T1, Rhodesain; assay: Inhibition of Trypanosoma brucei rhodesiense recombinant rhodesain by standard fluorescence assay in presence of DTT
Rhodesain [12] = target: T1, Rhodesain; assay: Inhibition of Trypanosoma brucei rhodesiense recombinant rhodesain using high concentration of enzyme by standard fluorescence assay
Rhodesain [13] = target: T1, Rhodesain; assay: Inhibition of Trypanosoma brucei rhodesiense recombinant rhodesain using low concentration of enzyme by standard fluorescence assay
Rhodesain [14] = target: T1, Rhodesain; assay: Inhibition of Trypanosoma brucei rhodesiense recombinant rhodesain using high concentration of enzyme by standard fluorescence assay in presence of detergent
Rhodesain [15] = target: T1, Rhodesain; assay: Inhibition of Trypanosoma brucei rhodesiense recombinant rhodesain using low concentration of enzyme by standard fluorescence assay in presence of detergent
[16] = target: Rhodesain (Trypanosoma brucei rhodesiense) (UniProt Q95PM0); assay: Inhibition of Trypanosoma brucei rhodesiense recombinant rhodesain at 100 uM by standard fluorescence assay
Plasmodium falciparum [17] = assay: Antiplasmodial activity against Plasmodium falciparum W2 at 10 uM by flow cytometry; assay type: functional
Plasmodium falciparum [18] = assay: Inhibition of Plasmodium falciparum recombinant falcipain-2 at 100 uM by standard fluorescence assay

Sequence of Rhodesain (Trypanosoma brucei rhodesiense) (Q95PM0 1-450): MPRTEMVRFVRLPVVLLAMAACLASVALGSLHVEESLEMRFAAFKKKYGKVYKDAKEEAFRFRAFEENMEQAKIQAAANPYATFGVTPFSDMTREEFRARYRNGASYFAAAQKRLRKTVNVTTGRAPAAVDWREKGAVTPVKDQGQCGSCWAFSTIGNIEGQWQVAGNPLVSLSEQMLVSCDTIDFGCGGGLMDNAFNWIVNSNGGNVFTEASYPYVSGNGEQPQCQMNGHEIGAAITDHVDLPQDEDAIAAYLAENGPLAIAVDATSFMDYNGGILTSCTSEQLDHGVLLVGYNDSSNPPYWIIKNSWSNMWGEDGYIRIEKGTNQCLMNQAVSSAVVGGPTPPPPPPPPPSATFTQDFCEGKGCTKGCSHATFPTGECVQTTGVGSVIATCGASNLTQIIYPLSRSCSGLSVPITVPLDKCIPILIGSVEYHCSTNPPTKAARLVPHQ
T1 sequence (Q95PM0 whole entry): as the sequence (Q95PM0 1-450) above

Molecule CCOC(=O)/C=C/[C@@H](CCC(=O)NC(c1ccccc1)(c1ccccc1)c1ccccc1)NC(=O)[C@@H](NC(=O)OC(C)(C)C)c1ccccc1 has a selectivity ratio [1] of 17, an IC50 [2] of 3.5 µM and an IC50 (Plasmodium falciparum [3]) of 0.9 µM. For the same molecule, the Ki [4] was 0.49 µM, the IC50 [5] was 60 µM and the Ki (Rhodesain [6]) was 0.14 µM. For the same molecule, the “Time-dependent inhibition (qualitative)” value [7] was “tde”.
Work on CCOC(=O)/C=C/CN[C@@H](CCC(N)=O)C(=O)N[C@H](C(=O)N[C@H](C(=O)N[C@@H](C)C(=O)OCc1ccccc1)C(C)C)C1CCCCC1 yielded a Ki [8] of 5.4 µM, an IC50 (Plasmodium falciparum [9]) of 35.8 µM and a Ki [10] of 28.4 µM. For the same molecule, the Ki [4] was 6.7 µM and the Ki (Rhodesain [6]) was 5.8 µM.
CCOC(=O)/C=C/[C@H](CCC(=O)NC(c1ccccc1)(c1ccccc1)c1ccccc1)NC(=O)OC(C)(C)C showed a Ki (Rhodesain [11]) of 3.6 µM, an IC50 (Plasmodium falciparum [9]) of 4 µM and a selectivity ratio [1] greater than 36. The Ki [10] was 8.2 µM, the IC50 [2] was 2.8 µM and the Ki [4] was 1.8 µM. The IC50 [5] was greater than 100 µM, the Ki (Rhodesain [6]) was 4.3 µM and the “Time-dependent inhibition (qualitative)” value [7] was “tde”.
Work on CCOC(=O)/C=C/[C@H](CCC(=O)NC(c1ccccc1)(c1ccccc1)c1ccccc1)NC(=O)[C@@H](NC(=O)OC(C)(C)C)c1ccccc1 yielded an IC50 (Plasmodium falciparum [9]) of 3.9 µM, a Ki (Rhodesain [12]) of 0.64 µM and a Ki (Rhodesain [13]) of 0.64 µM. The Ki [10] was 1.4 µM, the Ki (Rhodesain [14]) was 0.4 µM and the IC50 [2] was 31 µM. The Ki [4] was 0.45 µM, the Ki (Rhodesain [6]) was 0.47 µM and the “Time-dependent inhibition (qualitative)” value [7] was “tde”. The Ki (Rhodesain [15]) was 0.3 µM.
With CCOC(=O)/C=C\C(=O)N[C@@H](CCC(=O)NC(c1ccccc1)(c1ccccc1)c1ccccc1)C(=O)OC the inhibition [16] was “inactive”, the inhibition at 10 µM (Plasmodium falciparum [17]) was 30% and the IC50 [2] was 25.5 µM. For the same molecule, the inhibition (Plasmodium falciparum [18]) was “inactive”.
